The values that follow come from patent publication US20070128217A1 (priority 2003, published 2007).

Test [1] concerns antibodies in sera from SARS patients (sera 1a, 1b, 2, 6, 37, 62, London, SARS-yellow, SARS-green). The test is classed as binding, human. Set-up: Binding of serum 6 to linear peptides of protein X1 of SARS-CoV Urbani / Binding of serum 37 to linear peptides of protein X1 of SARS-CoV Urbani / Binding of serum 6 to looped/cyclic peptide (PEPSCAN-ELISA) / Binding of serum 37 to looped/cyclic peptide (PEPSCAN-ELISA) / Binding of serum 37 to looped/cyclic peptides of protein X1 of SARS-CoV Urbani / Binding of serum 6 to linear peptides of protein X2 / Binding of serum 37 to linear peptides of protein X2 / Binding of serum 37 to looped/cyclic peptides of protein X2 of SARS-CoV Urbani / Binding of serum 6 to linear peptides of protein M of SARS-CoV Urbani / Binding of serum 37 to linear peptides of protein M of SARS-CoV Urbani / Binding of serum 6 to looped/cyclic peptides of protein M of SARS-CoV Urbani / Binding of serum 37 to looped/cyclic peptides of protein M of SARS-CoV Urbani / Binding of serum 6 to linear peptides of protein X3 of SARS-CoV Urbani / Binding of serum 37 to linear peptides of protein X3 of SARS-CoV Urbani / Binding of serum 37 to looped/cyclic peptides of protein X3 of SARS-CoV Urbani / Binding of serum 6 to linear peptides of protein X4 of SARS-CoV Urbani / Binding of serum 37 to linear peptides of protein X4 of SARS-CoV Urbani / Binding of serum 37 to looped/cyclic peptides of protein X4 of SARS-CoV Urbani / Binding of serum 6 to linear peptides of protein X5 of SARS-CoV Urbani / Binding of serum 37 to linear peptides of protein X5 of SARS-CoV Urbani / Binding of serum 37 to looped/cyclic peptides of protein X5 of SARS-CoV Urbani / Binding of serum 6 to linear peptides of protein N of SARS-CoV Urbani / Binding of serum 37 to linear peptides of protein N of SARS-CoV Urbani / Binding of serum 6 to linear peptide (PEPSCAN-ELISA) / Binding of serum 1a to looped/cyclic peptides of protein N of SARS-CoV Urbani / Binding of serum 1b to looped/cyclic peptides of protein N of SARS-CoV Urbani / Binding of serum 2 to looped/cyclic peptides of protein N of SARS-CoV Urbani / Binding of serum 6 to looped/cyclic peptides of protein N of SARS-CoV Urbani / Binding of serum 37 to looped/cyclic peptides of protein N of SARS-CoV Urbani / Binding of serum 62 to looped/cyclic peptides of protein N of SARS-CoV Urbani / Binding of serum London to looped/cyclic peptides of protein N of SARS-CoV Urbani / Binding of serum SARS-green to looped/cyclic peptides of protein N of SARS-CoV Urbani: unit not given here.

Test [2] concerns control sera (pooled serum of ten healthy LUMC hospital workers; commercial negative donor pooled serum from the Dutch bloodbank). The test is classed as binding, human. Set-up: Binding of Control serum LUMC to linear peptides / Binding of Control serum Blood-bank to linear peptides / Binding of Control serum LUMC to looped peptides / Binding of Control Serum Blood-Bank to Looped peptides / Binding of Control serum LUMC to linear peptides of the protein M of SARS-CoV Urbani / Binding of Control serum Blood-bank to linear peptides of the protein M of SARS-CoV Urbani / Binding of Control serum LUMC to looped peptides of the protein M of SARS-CoV Urbani / Binding of Control Serum Blood-Bank to Looped peptides of the protein M of SARS-CoV Urbani: unit not given here.

For test [3], the system named is rabbit serum obtained by immunizing a rabbit with the SARS-CoV strain Frankfurt 1. The test is classed as binding. Set-up: Binding of a rabbit serum to linear peptides / Binding of a rabbit serum to looped peptides / Rabbit serum linear peptides / Rabbit serum looped peptides / Binding of a rabbit serum to linear peptides of protein N of SARS-CoV Urbani (Rabbit serum linear peptides) / Binding of a rabbit serum to looped/cyclic peptides of protein N of SARS-CoV Urbani (Rabbit serum looped peptides): unit not given here.

For the sequence ASLPFGWLVIGVAFL, in test [1], the “Binding of serum 1a to linear peptides of protein X1 of SARS-CoV Urbani” value is given as 0.7, the “Binding of serum 1a to looped/cyclic peptide (PEPSCAN-ELISA)” value came out at 0.5, the “Binding of serum 1b to linear peptides of protein X1 of SARS-CoV Urbani” value is 0.5 and the “Binding of serum 1b to looped/cyclic peptide (PEPSCAN-ELISA)” value is recorded as 0.3. Besides, in test [1], the “Binding of serum 2 to linear peptides of protein X1 of SARS-CoV Urbani” value came out at 0.6, the “Binding of serum 2 to looped/cyclic peptide (PEPSCAN-ELISA)” value is listed as 0.4, the “Binding of serum 6 to linear peptides of protein X1 of SARS-CoV Urbani” value is listed as 0.5 and the “Binding of serum 6 to looped/cyclic peptide (PEPSCAN-ELISA)” value was 0.2. For the same sequence, in test [1], the “Binding of serum 37 to linear peptides of protein X1 of SARS-CoV Urbani” value was found to be 0.6, the “Binding of serum 37 to looped/cyclic peptide (PEPSCAN-ELISA)” value worked out at 0.3, the “Binding of serum 62 to linear peptides of protein X1 of SARS-CoV Urbani” value is 0.6 and the “Binding of serum 62 to looped/cyclic peptide (PEPSCAN-ELISA)” value came to 0.4. Also, in test [1], the “Binding of serum London to linear peptides of protein X1 of SARS-CoV Urbani” value was 0.3, the “Binding of serum London to looped/cyclic peptide (PEPSCAN-ELISA)” value is on record as 0.2, the “Binding of serum SARS-green to linear peptides of protein X1 of SARS-CoV Urbani” value came out at 0.2 and the “Binding of serum SARS-green to looped/cyclic peptide (PEPSCAN-ELISA)” value was found to be 0.2. Moreover, in test [1], the “Binding of serum SARS-yellow to linear peptides of protein X1 of SARS-CoV Urbani” value is listed as 0.4 and the “Binding of serum SARS-yellow to looped/cyclic peptide (PEPSCAN-ELISA)” value came out at 0.3. Further, in test [2], the “Binding of Control Serum Blood-Bank to Looped peptides” value is given as 0.4, the “Binding of Control serum Blood-bank to linear peptides” value was determined as 0.6, the “Binding of Control serum LUMC to linear peptides” value worked out at 0.6 and the “Binding of Control serum LUMC to looped peptides” value is given as 0.6. In test [3], the “Binding of a rabbit serum to linear peptides” value turned out to be 1.4 and the “Binding of a rabbit serum to looped peptides” value came out at 0.3.
In the case of CADGTRHTYQLRARS, in test [1], the “Binding of serum 1a to linear peptides of protein X4 of SARS-CoV Urbani” value is 0.6, the “Binding of serum 1a to looped/cyclic peptides of protein X4 of SARS-CoV Urbani” value worked out at 0.7, the “Binding of serum 1b to linear peptides of protein X4 of SARS-CoV Urbani” value stood at 0.5 and the “Binding of serum 1b to looped/cyclic peptides of protein X4 of SARS-CoV Urbani” value was 0.4. In test [1], the “Binding of serum 2 to linear peptides of protein X4 of SARS-CoV Urbani” value was 0.5, the “Binding of serum 2 to looped/cyclic peptides of protein X4 of SARS-CoV Urbani” value is 0.8, the “Binding of serum 6 to linear peptides of protein X4 of SARS-CoV Urbani” value is recorded as 0.6 and the “Binding of serum 6 to looped/cyclic peptides of protein X4 of SARS-CoV Urbani” value was determined as 0.6. Further, in test [1], the “Binding of serum 37 to linear peptides of protein X4 of SARS-CoV Urbani” value is listed as 0.7, the “Binding of serum 37 to looped/cyclic peptides of protein X4 of SARS-CoV Urbani” value stood at 0.7, the “Binding of serum 62 to linear peptides of protein X4 of SARS-CoV Urbani” value came out at 0.7 and the “Binding of serum 62 to looped/cyclic peptides of protein X4 of SARS-CoV Urbani” value amounted to 0.6. In test [1], the “Binding of serum London to linear peptides of protein X4 of SARS-CoV Urbani” value is reported as 0.8, the “Binding of serum London to looped/cyclic peptides of protein X4 of SARS-CoV Urbani” value came to 0.3, the “Binding of serum SARS-green to linear peptides of protein X4 of SARS-CoV Urbani” value is on record as 0.6 and the “Binding of serum SARS-green to looped/cyclic peptides of protein X4 of SARS-CoV Urbani” value is 0.0. In addition, in test [1], the “Binding of serum SARS-yellow to linear peptides of protein X4 of SARS-CoV Urbani” value was 0.7 and the “Binding of serum SARS-yellow to looped/cyclic peptides of protein X4 of SARS-CoV Urbani” value came out at 0.6. Also, in test [2], the “Binding of Control Serum Blood-Bank to Looped peptides” value turned out to be 0.5, the “Binding of Control serum Blood-bank to linear peptides” value is reported as 0.7, the “Binding of Control serum LUMC to linear peptides” value is 0.5 and the “Binding of Control serum LUMC to looped peptides” value is reported as 0.6. Besides, the “Recognition of the peptide by the rabbit serum” value in test [3] is on record as “recognized”.
For the sequence CDIKDLPKEITVATS, in test [1], the “Binding of serum 1a to linear peptides of protein M of SARS-CoV Urbani” value came out at 0.6, the “Binding of serum 1a to looped/cyclic peptides of protein M of SARS-CoV Urbani” value turned out to be 0.6, the “Binding of serum 1b to linear peptides of protein M of SARS-CoV Urbani” value is 0.3 and the “Binding of serum 1b to looped/cyclic peptides of protein M of SARS-CoV Urbani” value is 0.3. In addition, in test [1], the “Binding of serum 2 to linear peptides of protein M of SARS-CoV Urbani” value turned out to be 0.3, the “Binding of serum 2 to looped/cyclic peptides of protein M of SARS-CoV Urbani” value came to 0.6, the “Binding of serum 6 to linear peptides of protein M of SARS-CoV Urbani” value is given as 0.3 and the “Binding of serum 6 to looped/cyclic peptides of protein M of SARS-CoV Urbani” value was 0.5. Further, in test [1], the “Binding of serum 37 to linear peptides of protein M of SARS-CoV Urbani” value amounted to 0.5, the “Binding of serum 37 to looped/cyclic peptides of protein M of SARS-CoV Urbani” value was 0.6, the “Binding of serum 62 to linear peptides of protein M of SARS-CoV Urbani” value came out at 0.7 and the “Binding of serum 62 to looped/cyclic peptides of protein M of SARS-CoV Urbani” value is on record as 0.6. Besides, in test [1], the “Binding of serum London to linear peptides of protein M of SARS-CoV Urbani” value is listed as 0.3, the “Binding of serum London to looped/cyclic peptides of protein M of SARS-CoV Urbani” value is given as 0.2, the “Binding of serum SARS-green to linear peptides of protein M of SARS-CoV Urbani” value stood at 0.2 and the “Binding of serum SARS-green to looped/cyclic peptides of protein M of SARS-CoV Urbani” value was 0.4. In test [1], the “Binding of serum SARS-yellow to linear peptides of protein M of SARS-CoV Urbani” value is 0.0 and the “Binding of serum SARS-yellow to looped/cyclic peptides of protein M of SARS-CoV Urbani” value is on record as 0.6. Besides, in test [2], the “Binding of Control Serum Blood-Bank to Looped peptides of the protein M of SARS-CoV Urbani” value was determined as 0.6, the “Binding of Control serum Blood-bank to linear peptides of the protein M of SARS-CoV Urbani” value came to 0.4, the “Binding of Control serum LUMC to linear peptides of the protein M of SARS-CoV Urbani” value is reported as 0.2 and the “Binding of Control serum LUMC to looped peptides of the protein M of SARS-CoV Urbani” value came out at 0.7. Moreover, in test [3], the “Rabbit serum linear peptides” value came out at 0.4 and the “Rabbit serum looped peptides” value is on record as 0.6.
Consider CFVLAAVYRINWVTG, for which, in test [1], the “Binding of serum 1a to linear peptides of protein M of SARS-CoV Urbani” value is reported as 0.8, the “Binding of serum 1a to looped/cyclic peptides of protein M of SARS-CoV Urbani” value turned out to be 0.6, the “Binding of serum 1b to linear peptides of protein M of SARS-CoV Urbani” value is recorded as 0.6 and the “Binding of serum 1b to looped/cyclic peptides of protein M of SARS-CoV Urbani” value is recorded as 0.6. Further, in test [1], the “Binding of serum 2 to linear peptides of protein M of SARS-CoV Urbani” value was found to be 0.6, the “Binding of serum 2 to looped/cyclic peptides of protein M of SARS-CoV Urbani” value is listed as 0.5, the “Binding of serum 6 to linear peptides of protein M of SARS-CoV Urbani” value is given as 0.6 and the “Binding of serum 6 to looped/cyclic peptides of protein M of SARS-CoV Urbani” value was 0.8. Besides, in test [1], the “Binding of serum 37 to linear peptides of protein M of SARS-CoV Urbani” value came to 0.4, the “Binding of serum 37 to looped/cyclic peptides of protein M of SARS-CoV Urbani” value was found to be 0.6, the “Binding of serum 62 to linear peptides of protein M of SARS-CoV Urbani” value is 0.4 and the “Binding of serum 62 to looped/cyclic peptides of protein M of SARS-CoV Urbani” value is 0.7. Moreover, in test [1], the “Binding of serum London to linear peptides of protein M of SARS-CoV Urbani” value is reported as 0.4, the “Binding of serum London to looped/cyclic peptides of protein M of SARS-CoV Urbani” value worked out at 0.2, the “Binding of serum SARS-green to linear peptides of protein M of SARS-CoV Urbani” value was determined as 0.5 and the “Binding of serum SARS-green to looped/cyclic peptides of protein M of SARS-CoV Urbani” value is reported as 0.3. In test [1], the “Binding of serum SARS-yellow to linear peptides of protein M of SARS-CoV Urbani” value worked out at 0.2 and the “Binding of serum SARS-yellow to looped/cyclic peptides of protein M of SARS-CoV Urbani” value amounted to 0.4. Also, in test [2], the “Binding of Control Serum Blood-Bank to Looped peptides of the protein M of SARS-CoV Urbani” value worked out at 0.6, the “Binding of Control serum Blood-bank to linear peptides of the protein M of SARS-CoV Urbani” value was 0.7, the “Binding of Control serum LUMC to linear peptides of the protein M of SARS-CoV Urbani” value stood at 0.6 and the “Binding of Control serum LUMC to looped peptides of the protein M of SARS-CoV Urbani” value came out at 0.8. In addition, in test [3], the “Rabbit serum linear peptides” value was found to be 0.2 and the “Rabbit serum looped peptides” value is on record as 0.1.
